Results taken from publication PMC10051798, “Thiosemicarbazide Derivatives Targeting Human TopoIIα and IDO-1 as Small-Molecule Drug Candidates for Breast Cancer Treatment” (International Journal of Molecular Sciences, 2023).
≈ marks a conversion by molar mass, not a printed value. Where “and” joins values, the source holds several entries; their conditions need not be identical. Equal entries are not always repeated.

Legend:
MDA-MB-231 cells [1] = test system: MDA-MB-231 cells; design: method as in PMID 36345785; conditions: MTT; cited from earlier work
[2] = molecular target: T1, MDR1 (p-glycoprotein) in MDA-MB-231 cells (Homo sapiens, UniProt P08183); assay: MDR transporter activity assay, MDR1 in MDA-MB-231; assay type: cell-based; conditions: MDA-MB-231, 20 µg/mL, 24 h
T1 construct: endogenous in cells; host or cells: MCF-7 and MDA-MB-231 cells
T1 sequence (P08183 whole entry): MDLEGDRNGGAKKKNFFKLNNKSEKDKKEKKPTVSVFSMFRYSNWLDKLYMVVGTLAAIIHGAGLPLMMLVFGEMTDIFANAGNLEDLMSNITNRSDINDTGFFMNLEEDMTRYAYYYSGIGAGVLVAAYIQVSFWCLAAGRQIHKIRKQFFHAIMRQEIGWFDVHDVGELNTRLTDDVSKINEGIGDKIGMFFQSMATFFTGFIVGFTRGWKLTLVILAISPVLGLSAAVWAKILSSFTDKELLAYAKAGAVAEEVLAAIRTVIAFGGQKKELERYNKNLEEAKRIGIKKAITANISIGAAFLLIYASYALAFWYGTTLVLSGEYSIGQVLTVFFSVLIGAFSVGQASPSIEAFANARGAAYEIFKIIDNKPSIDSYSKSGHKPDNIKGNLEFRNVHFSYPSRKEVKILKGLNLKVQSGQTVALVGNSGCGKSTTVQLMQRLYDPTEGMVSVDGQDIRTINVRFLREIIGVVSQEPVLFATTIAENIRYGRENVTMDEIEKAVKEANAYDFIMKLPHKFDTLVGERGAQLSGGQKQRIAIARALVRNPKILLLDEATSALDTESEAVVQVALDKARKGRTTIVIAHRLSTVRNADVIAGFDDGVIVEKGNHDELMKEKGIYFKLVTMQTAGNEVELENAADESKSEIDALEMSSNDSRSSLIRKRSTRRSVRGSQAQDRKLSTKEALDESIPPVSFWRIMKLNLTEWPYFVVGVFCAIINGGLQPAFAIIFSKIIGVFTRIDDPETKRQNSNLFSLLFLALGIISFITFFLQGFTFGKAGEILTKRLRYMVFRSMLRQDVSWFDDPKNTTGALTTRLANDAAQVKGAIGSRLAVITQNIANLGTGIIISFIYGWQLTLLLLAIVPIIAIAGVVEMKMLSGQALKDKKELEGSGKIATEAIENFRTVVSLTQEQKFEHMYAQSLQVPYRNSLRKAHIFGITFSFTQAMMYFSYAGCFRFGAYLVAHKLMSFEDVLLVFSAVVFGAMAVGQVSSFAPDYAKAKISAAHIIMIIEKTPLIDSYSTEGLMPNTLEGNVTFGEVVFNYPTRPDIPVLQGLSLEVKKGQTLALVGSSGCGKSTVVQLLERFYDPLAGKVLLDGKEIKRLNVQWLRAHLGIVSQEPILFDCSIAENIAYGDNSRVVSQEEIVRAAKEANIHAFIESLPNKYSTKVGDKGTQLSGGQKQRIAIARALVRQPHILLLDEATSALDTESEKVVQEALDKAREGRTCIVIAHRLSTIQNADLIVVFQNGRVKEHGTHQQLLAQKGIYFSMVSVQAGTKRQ
Procedure: An MDR Assay kit (Abcam, Cambridge, UK) was used following the manufacturer’s instructions. MCF-7 and MDA-MB-231 cells were incubated with compounds 1–3 (10 μg/mL and 20 μg/mL). After 24 h of incubation, the test cells were washed twice with 5 mL of PBS by centrifugation at 1200 rpm for 10 min. The supernatants were discarded and the cells were counted using a Scepter 3.0 handheld automated cell counter (Milipore, Burlington, MA, USA). Then, each of the tested samples was divided into three parts and analyzed. Tomeasure the activity of MDR1, MRP1 and BCRP (tubes 1–12), 5 μL of verapamil (MDR1 inhibitor) was added into tubes 1–3, 5 μL of MK-571 (MRP1 inhibitor) was added into tubes 4–6, 5 μL of noviobiocin (BCRP inhibitor) was added into tubes 7–9 and 125 μL DMEM with 1 μL of DMSO was added into tubes 10–12. Then, the samples were incubated at 37 °C for five minutes. After this time, 125 μL of Efflux Green Detection Reagent was added into tubes 1–12 and the samples were incubated for 30 min at 37 °C. After 25 min of incubation, 5 μL of PI was added to each tube. Thereafter, the samples were centrifuged for 10 min at 1200 rpm. The supernatants were discarded and the cells were resuspended in 500 μL of PBS and run on the flow cytometer immediately. Measurements were conducted on a BD FACSCanto II flow cytometer using FACSDiva software (version 6.1.3, BD Biosciences, San Diego, CA, USA). […] The calculations followed these formulas:MAFMDR1= 100 × (FMDR1 − F0)/FMDR1 MAFMRP= 100 × (FMRP − F0)/FMRP MAFBCRP= 100 × (FBCRP − F0)/FBCRP
• FMDR—MFI with MDR1 inhibitor (verapamil) • FMRP—MFI with MRP inhibitor (MK-571) • FBCRP—MFI with BCRP inhibitor (novobiocin) • F0—MFI without inhibitor
The theoretical range of the MAF values is between 0 and 100.

MCF-7 cells [3] = test system: MCF-7 cells; design: method as in PMID 36345785; conditions: BrdU assay; cited from earlier work
MCF-7 cells [4] = assay: Cell cycle analysis (PI flow cytometry), MCF-7; assay type: cell-based, human; conditions: MCF-7, 20 µg/mL, 24 h
Procedure: Cell cycle analyses of MCF-7 and MDA-MB-231 cells treated with compounds 1–3 and etoposide for 24 h were performed using a FACSCanto II flow cytometer (BD Bioscences Systems, San Diego, CA, USA). After incubation, breast cancer cells were trypsinized and fixed with cold ethanol (70%) and stored overnight at −20 °C. After removing ethanol, the cells were washed three times with PBS, treated with 50 μg/mL of DNase-free RNase A Solution (Promega, Madison, WI, USA) and stained with 100 μg/mL of PI. The results of measurements were analyzed using FCS Express 7 software (De Novo Software, Pasadena, CA, USA).

MCF-10A cells = assay: MTT viability assay, normal breast epithelial cells; assay type: cell-based, human
Procedure: Human breast cancer cells, i.e., MCF-7 (estrogen-dependent breast cancer cells) and MDA-MB-231 (estrogen-independent breast cancer cells), as well as normal human breast epithelial cells (MCF-10A) were purchased from the American Type Culture Collection (ATCC, Manassas, VA, USA). MCF-7 and MDA-MB-231 cells were cultured in DMEM (Sigma Aldrich, St. Louis, MO, USA) supplemented with 10% fetal bovine serum (FBS), penicillin (100 U/mL) and streptomycin (100 μg/mL). MCF-10A cells were cultured in Mammary Epithelial Cell Growth Medium supplemented with BPE, hEGF, insulin, hydrocortisone, GA-1000 (Lonza, Basel, Switzerland), 10% fetal bovine serum (FBS), penicillin (100 U/mL) and streptomycin (100 μg/mL). The cells were grown in T25 Cell Culture EasyFlask (Nunc, Roskilde, Denmark) at 37 °C in a humidified atmosphere of 5% CO2.
MTT assays were performed to evaluate the cytotoxic activity of the investigated compounds (1–3) against MCF-10A cells. Asuspension of cells (1 × 10^5 cells/mL) was distributed onto 96-well plates at a volume of 100 μL/well. After attachment, the cells were treated with increased concentrations of the tested compounds in medium containing 2% FBS, and incubated for 24 h. Then, 15 μL of MTT working solution (5 mg/mL in PBS) was added to each well and the plates were incubated for 3 h. Subsequently, 100 μL of 10% SDS solution was added to each well in order to dissolve the formazan formed. After overnight incubation at 37 °C, the absorbance of the obtained solution was measured at λ= 570 nm using a microplate reader (Epoch, BioTek Instruments, Inc., Winooski, VT, USA). At least two independent experiments were performed in triplicate. IC50 values of the tested compounds were calculated using the IC50 online calculator [27].

MCF-7 cells [5] = assay: Autophagy Assay (Red kit) flow cytometry, MCF-7; assay type: cell-based, human; conditions: 24 h
Procedure: (§1) In order to evaluate the number of autophagosomes and autolysosomes in breast cancer cells incubated with the investigated compounds, anAutophagy Assay (Red kit) was performed (ImmunoChemistry Technologies, Bloomington, MN, USA). In short, the unfixed cells were washed and resuspended in PBS with the added autophagy probe, Red solution. Next, the cells were incubated for 30 min at 37 °C in the dark, washed, resuspended in cellular assay buffer and the provided fixative was added at a volume/volume ratio of 1:5. The samples were measured immediately after preparation by flow cytometry using the BD FACSCanto II system (BD Biosciences Systems, San Diego, CA, USA). The percentage of cells with autophagy was calculated using FACSDiva software (version 6.1.3, BD Biosciences Systems, San Diego, CA, USA).

MDA-MB-231 cells [6] = assay: Autophagy Assay (Red kit) flow cytometry, MDA-MB-231; assay type: cell-based, human; conditions: 24 h
Procedure: as §1

MCF-7 cells [7] = test system: MCF-7 cells; design: method as in PMID 36345785; conditions: MTT; cited from earlier work
MDA-MB-231 cells [8] = assay: Annexin V/propidium iodide flow cytometry (apoptosis), MDA-MB-231; assay type: cell-based, human; conditions: MDA-MB-231, 20 µg/mL, 24 h
Description: (§2) Flow cytometry analyses for apoptosis induction by the compounds 1–3 and etoposide wereperformedusing an FITC Annexin V Apoptosis Detection Kit II (BD Pharmingen, San Diego, CA, USA). The rationale of the assay is based on the externalization of phosphatidylserine on the surface of apoptotic cells. In early and late apoptotic cells, the phosphatidylserine translocates into the outer layer of the membrane, which allows annexin V-FITC to attach. Propidium iodide (PI) is, in turn, a fluorescent dye that penetrates into the late apoptotic and necrotic cells with impaired cell membrane integrity. Therefore, using annexin V and PI, it is possible to distinguish four groups of cells: living cells, early apoptotic cells, late apoptotic cells and necrotic cells. MCF-7 and MDA-MB-231 cells were incubated with 10 and 20 µg/mL of compounds 1–3 and etoposide (reference drug) for 24 h. After incubation, the cells were dyed with FITC-labeled annexin V and PI. The analysis was performed on a BD FACS Canto II flow cytometer using FACSDiva software (version 6.1.3, BD Biosciences Systems, San Diego, CA, USA). The equipment was calibrated with BD Cytometer Setup and Tracking Beads (BDBiosciences, San Diego, CA, USA).

caspase-8 in MCF-7 cells = assay: FLICA caspase-8 activity flow cytometry, MCF-7; assay type: cell-based, human; conditions: MCF-7, 20 µg/mL, 24 h
Procedure: (§3) Caspase-8 and caspase-9 activitiesweremeasured using the FLICA Caspase-8 Assay Kit and FLICA Caspase-9 Assay Kit (ImmunoChemistry Technologies, Bloomington, MN, USA), respectively, according to the manufacturer’s protocol. In brief, MCF-7 and MDA-MB-231 breast cancer cells (1 × 10^6) were washed with cold PBS twice and re-suspended in buffer. Then, 5 μL of diluted FLICA reagent and 2 μL of Hoechst 33,342 were added to 93 μL of cell suspension, mixed by pipetting and incubated for 60 min at 37 °C. After incubation, the cells were washed twice with 400 μL of apoptosis wash buffer and centrifuged at 300× g. After the last wash, the cells were resuspended in 100 μL of apoptosis wash buffer supplemented with 10 μg/mL of PI. Analyses were performed using aBD FACSCanto II flow cytometer, and the results were analyzed with FACSDiva software (version 6.1.3, BD BiosciencesSystems, San Diego, CA, USA). To identify the involvement of caspases in apoptosis induced by compounds 1–3, the investigated breast cancer cells were pretreated with the pan-caspase inhibitor, Z-VAD-FMK (100 µM) (Sigma Aldrich, St. Louis, MO, USA), as described in [28]. The activation of caspases-8 and -9 was detected as described above.

[9] = test system: caspase-8 in MDA-MB-231 cells; assay: FLICA caspase-8 activity flow cytometry, MDA-MB-231; assay type: cell-based, human; conditions: MDA-MB-231, 20 µg/mL, 24 h
Procedure: as §3

MCF-7 cells [10] = assay: Annexin V/propidium iodide flow cytometry (apoptosis), MCF-7; assay type: cell-based, human; conditions: MCF-7, 20 µg/mL, 24 h
Description: as §2

recombinant CYP2D6 = recombinant CYP2D6 (Homo sapiens, UniProt P10635); assay: Vivid CYP2D6 Cyan screening kit; conditions: 10 µM, positive control
Sequence of recombinant CYP2D6 (P10635 whole entry): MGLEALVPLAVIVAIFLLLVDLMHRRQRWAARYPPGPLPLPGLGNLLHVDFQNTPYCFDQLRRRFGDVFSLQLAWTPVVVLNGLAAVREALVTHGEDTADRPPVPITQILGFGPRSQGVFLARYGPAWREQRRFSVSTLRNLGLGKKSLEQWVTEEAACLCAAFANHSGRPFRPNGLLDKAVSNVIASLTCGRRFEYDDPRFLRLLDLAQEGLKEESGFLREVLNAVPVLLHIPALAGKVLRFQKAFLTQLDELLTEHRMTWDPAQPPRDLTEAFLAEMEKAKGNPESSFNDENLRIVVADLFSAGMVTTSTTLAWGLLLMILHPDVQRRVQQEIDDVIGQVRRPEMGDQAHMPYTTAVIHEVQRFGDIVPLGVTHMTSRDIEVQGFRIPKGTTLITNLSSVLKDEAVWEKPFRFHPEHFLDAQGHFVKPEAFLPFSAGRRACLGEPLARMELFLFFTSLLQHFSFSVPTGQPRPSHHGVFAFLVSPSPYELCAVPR
Procedure: According to these assays, the examined compounds are analyzed by their ability to inhibit the production of a fluorescent signal in the reaction between recombinant CYP3A4 or CYP2D6 isozymes and specific Vivid substrates. The experiments were performed in the endpoint mode of the assay, in which solutions of examined compounds were first combined with the Master Pre-mix. After a short incubation, the background fluorescence of the Master Pre-mix and the examined compounds was measured. Next, a mix of the respective Vivid substrate and NADP^+ was added in order to initiate the enzymatic reaction. After 20 min of incubation, the reaction was terminated using a stop solution and the fluorescence was measured using the recommended (by the manufacturer) excitation and emission wavelengths. […] A reaction mixture without tested compounds was used as a negative control and its fluorescence was designated as 100%. The experiments were run in triplicate and the results were presented as means ± SD.

## CC(C)c1cccc(C(C)C)c1NC(=S)NNC(=O)Cc1cccc2ccccc12 [Compound 1]
MDA-MB-231 cells [1]
  IC50: 21.9 ± 0.5 µM
  IC50 MDA-MB-231: 9.21 ± 0.21 µg/mL (≈ 21.9 µM)
[2]
  MAF MDR1: < 20
MCF-7 cells [3]
  antiproliferative activity, times stronger than etoposide: 46 times
  selectivity index (SI), cancer vs normal (non-cancerous) cells: 46.8
MCF-7 cells [4]
  cells in G2/M phase: 33.6%
  cells in S phase: 35.9%
MCF-10A cells; Homo sapiens, MCF-10A, MTT, 24 h
  IC50: 25.3 µg/mL and 60.3 µM
MCF-10A cells; IC50 MCF-10A/IC50 MCF-7
  SIMCF-7 (selectivity index): 2.57
MCF-10A cells; IC50 MCF-10A/IC50 MDA-MB-231
  SIMDA-MB-231 (selectivity index): 2.75
MCF-7 cells [5]; MCF-7, 10 µg/mL
  cells undergoing autophagy: 2.5 ± 0.2%
MCF-7 cells [5]; MCF-7, 20 µg/mL
  cells undergoing autophagy: 11.5 ± 1.2%
MDA-MB-231 cells [6]; MDA-MB-231, 10 µg/mL (lower end of printed range)
  cells undergoing autophagy: 3.0 ± 0.2%
MDA-MB-231 cells [6]; MDA-MB-231, 20 µg/mL (upper end of printed range)
  cells undergoing autophagy: 5.5 ± 0.9%
MCF-7 cells [7]
  IC50: 23.4 ± 1.12 µM
  IC50 MCF-7: 9.82 ± 0.47 µg/mL (≈ 23.4 µM)

## COc1cc([C@@H]2c3cc4c(cc3[C@@H](O[C@@H]3O[C@@H]5CO[C@@H](C)O[C@H]5[C@H](O)[C@H]3O)[C@H]3COC(=O)[C@H]23)OCO4)cc(OC)c1O [etoposide, reference compound]
MDA-MB-231 cells [8]
  apoptotic cells (sum of early and late apoptotic cells): about 8.5%
caspase-8 in MCF-7 cells
  cells with activated caspase-8: 6.73%
[9]
  cells with activated caspase-8: 7.2%
MCF-7 cells [10]
  apoptotic cells (sum of early and late apoptotic cells): about 8.5%
MCF-7 cells [5]; MCF-7, etoposide-treated, concentration not specified
  cell population forming autophagosomes and/or autolysosomes: about 1%
MDA-MB-231 cells [6]; MDA-MB-231, etoposide-treated, concentration not specified
  cell population forming autophagosomes and/or autolysosomes: about 1%

## C=C[C@H]1C[N@@]2CC[C@H]1C[C@@H]2[C@@H](O)c1ccnc2ccc(OC)cc12 [guanidine]
Recombinant CYP2D6
  CYP2D6 activity vs. negative control: 11.08 ± 0.81%
